# Test system: human colon adenocarcinoma HT-29 cell line
# Assay: thermosensitizing or killing effect on HT-29 cells (cell count, ethidium bromide / fluorescein diacetate viability)
# Format: cell-based
# Settings: for Viability (%) / Total cells (x10^6) / Living cells (x10^6): mean ± S.D.; for Living cells (x10^6): viability % applied to total cells
# Procedure: The thermosensitizing or killing effect of omeprazole in acidic solution and that of liposome formulations was tested on human colon adenocarcinoma HT-29 cell line (Istituto Zooprofilattico Ubertini, Brescia, Italy). The cells were incubated under standard conditions: 5% CO2, 37°C, in McCOY'S 5A medium (Sigma-Aldrich, Milan, Italy) at pH 7.4 with sodium bicarbonate, antibiotics and antifungals (penicillin 100 U/mL, streptomycin 100 U/mL, amphotericin B 0.25 µg/mL) and 10% foetal bovine serum. A trypsin solution with EDTA was employed to detach the cells from the culture plates. The experimental protocol is reported in the following scheme: [formula] In detail: • 1)-HT-29 cells were seeded in 6-well culture plates (Falcon) with a 10 cm^2 area at a 250,000 cell/well concentration and 5 mL medium as indicated above. • 2)-After 72 h plating, the culture medium, with initial buffered pH=7.4, was replaced with unbuffered medium (without sodium bicarbonate), and 12 wells were maintained at 37°C, while 12 wells were destined for thermal treatment. In each group, three wells were treated with omeprazole in acidic solution, three with LUVs with acidic core and three with LUVs loaded with omeprazole in acidic solution, according to the concentrations reported in the previous scheme. […] At the end of the thermal treatment the cells were brought back into the incubator at 37°C. • 4)-After 24 h, the following parameters were evaluated for all the wells: Total number of cells (living and dead). After detachment of the cell monolayer with trypsin and EDTA, the total number of cells (living + dead) in each well was determined using a Countess cell counting machine (Invitrogen, Milan, Italy). Cell viability (%). Cell viability was evaluated by incubation of a detached cell suspension with ethidium bromide and fluorescein diacetate (Sigma-Aldrich, Milan, Italy). The cells were analysed with a fluorescent optical microscope (Olympus BX-41, Tokyo, Japan) using the filter for fluorescein. The images were recorded with an F-view digital camera (Olympus) and processed with F-view software (Olympus). With this method, the living cells are stained green and the dead cells red, as fluorescein diacetate is internalized by living cells and hydrolysed by cytoplasm esterases into the corresponding fluorochrome, fluorescein, which emits an intense green fluorescence, whereas ethidium bromide only penetrates cells with altered membranes, binding to nucleic acids and producing a red fluorescence. The living and dead cells were counted by a semi-manual method. A minimum of three images per well were acquired in distinct areas, representative of the corresponding cell suspension. For the group maintained at 37°C, an average of 2,500 cells was counted for each treatment type (constituted by three wells representing the single treatment performed in triplicate). Since the number of cells decreases noticeably for the wells treated at 45°C for 2 h, the number of recorded images was increased (from 9 to 16), and 2,700 to 3,500 cells were counted for each treatment type (constituted by three wells representing the single treatment performed in triplicate). Living cell (green) and dead cell (red) counts were acquired by marking each cell and recording the resulting cell number with Image J software. The percentage viability of the cells counted for each sample was calculated as follows: Viability(%) = (No. of living cells)/(No. of living cells + No. of dead cells)⋅100 [formula] Total number of living cells. The endpoint of the study was the total number of tumour cells surviving the different treatments. This value was calculated for each well by applying the viability percentage obtained by semi-manual counting to the total number of cells measured by the cell-counting machine. Statistical analysis. The data were subjected to statistical analysis with the paired Student's t-test and one-way ANOVA (SigmaPlot 12.0, Systat Software Inc.) with a 95% significance level. […]
# [1] = 37°C, 48 h incubation with treatment
# [2] = 45°C for 2h after 24 h pre-incubation, evaluated 24 h after thermal treatment
smiles,measurement,setting,value
"COc1ccc2[nH]c([S+]([O-])Cc3ncc(C)c(OC)c3C)nc2c1 (centres unmarked) [B, omeprazole]",Viability (%),[1],83.3 ± 2.4%
same,decrease in number of surviving tumour cells versus untreated control,"37°C, 48 h of incubation",25%
same,Total cells (x10^6),"37°C, living and dead cells per well, 48 h incubation with treatment",1.83 ± 0.25 x10^6
same,Living cells (x10^6),[1],1.53 ± 0.22 x10^6
same,reduction in number of living cells compared to heating only,"45°C for 2 h, 24 h after heat shock",41%
same,Total cells (x10^6),[2],0.66 ± 0.27 x10^6
same,Viability (%),[2],61.5 ± 4.4%
same,Living cells (x10^6),[2],0.40 ± 0.10 x10^6

# Source: patent publication EP3260120B1, “PHARMACOLOGICAL ADJUVANTS FOR THERMAL ABLATION OF CANCER” (Blasi, Paolo, priority 2016, dated 2017)
